Columns and labels:
[1] = system: L6-myotubes; assay: Glucose uptake (3H-2-deoxy-glucose) in differentiated L6-myotubes; type: cell-based; settings: agonist final concentration 1×10^−5, 3H-2-deoxy-glucose uptake, relative to isoproterenol
Experimental: L6-myoblasts were grown in Dulbecco's Modified Eagle's Medium (DMEM) containing 4.5 g/l glucose supplemented with 10% fetal bovine serum, 2 mM L-Glutamine, 50 U/ml penicillin, 50 μg/ml streptomycin and 10 mM HEPES. Cells were plated at 1×10^5 cells per ml in 24-well plates. After reaching 90% confluence the cells were grown in medium containing 2% FBS for 7 days where upon cells differentiated into myotubes. Differentiated L6-myotubes were serum-starved over night in medium containing 0.5% fatty-acid free BSA and stimulated with agonist, final concentration 1×10^−5. After 1 h 40 min cells were washed with warm, glucose free medium or PBS and another portion of agonist was added to glucose free medium. After 20 min the cells were exposed to 50 nM ^3H-2-deoxy-glucose for another 10 min before washed in ice cold glucose free medium or PBS and lysed in 0.2 M NaOH for 1 h in 60° C.

[2] = system: Intracellular cAMP levels; assay: Measurement of intracellular cAMP levels in differentiated cells (alpha screen cAMP kit); type: cell-based; settings: agonist final concentration 1×10^−5, 15 min, 1 mM IBMX, relative to isoproterenol
Experimental: L6-myoblasts were grown in Dulbecco's Modified Eagle's Medium (DMEM) containing 4.5 g/l glucose supplemented with 10% fetal bovine serum, 2 mM L-Glutamine, 50 U/ml penicillin, 50 μg/ml streptomycin and 10 mM HEPES. Cells were plated at 1×10^5 cells per ml in 24-well plates. After reaching 90% confluence the cells were grown in medium containing 2% FBS for 7 days where upon cells differentiated into myotubes.
Differentiated cells were serum-starved over night and stimulated with agonist, final concentration 1×10^−5, for 15 min in stimulation buffer (HBSS supplemented with 1% BSA, 5 mM HEPES and 1 mM IBMX, pH 7.4) The medium was then aspirated and to end the reaction 100 μL of 95% EtOH was added to each well of a 24-well plate and cells were kept in −20° C. over night. The EtOH was let to evaporate and 500 μL of lysis buffer (1% BSA, 5 mM HEPES and 0.3% Tween-20, pH 7.4) was added to each well before put in −80° C. for 30 min and then kept in −20° C. Intracellular cAMP levels were detected using an alpha screen cAMP kit (6760635D from Perkin Elmer). The activity for each compound is compared to that of isoproterenol.

| Compound | Biological example 1: glucose uptake activity compared to that of isoproterenol [1] | Biological example 2: intracellular cAMP activity compared to that of isoproterenol [2] |
| --- | --- | --- |
| CCC[C@@H](C)NC[C@H](O)c1ccc(O)cc1 [Example 2, 4-((R)-1-Hydroxy-2-(((R)-pentan-2-yl)amino)ethyl)phenol Hemisulphate] | ++ (between 75 and 50%) | + (between 50 and 25%) |
| CCC[C@@H](C)NC[C@H](O)c1cccc(O)c1 [Example 4, 3-((R)-1-Hydroxy-2-(((R)-pentan-2-yl)amino)ethyl)phenol Hemisulphate] | +++ (activity of more than 75% of that of isoproterenol) | ++ (between 75 and 50%) |
| CCC[C@@H](C)NC[C@H](O)c1ccc(F)cc1 [Example 5, (R)-1-(4-Fluorophenyl)-2-(((R)-pentan-2-yl)amino)ethan-1-ol] | ++ (between 75 and 50%) | − (less than 25%) |
| CCC[C@@H](C)NC[C@H](O)c1cccc(F)c1 [Example 6, (R)-1-(3-fluorophenyl)-2-(((R)-pentan-2-yl)amino)ethan-1-ol] | ++ (between 75 and 50%) | − (less than 25%) |

From patent US11793774B2, “Chiral beta-hydroxyethylamines and their use in the treatment of hyperglycemia” (ATROGI AB, priority 2017, dated 2023)
